Laboratory results from patent US5006531A, “5,6-dihydro(1H-indolo(3,2-C)quinoline-6,4'-piperidines) and related compounds which are useful for treating pain, psychosis or convulsions” (Hoechst-Roussel Pharmaceuticals Inc., priority 1989, dated 1991).
Where a name gives a salt, the structure may show the parent alone.

Tests used:
Type in all cases: in vivo
[1] = test system: mice; experiment: 2-phenyl-1,4-benzoquinone-induced writhing (PQW) test in mice (analgesic activity); conditions: for PQW: s.c.
Text: Compounds I of the present invention are useful as analgesic agents due to their ability to alleviate pain in mammals. […] Exptl. Biol. Med., 95, 729 (1957)].

[2] = test system: CK-1 male mice; experiment: climbing mice assay (apomorphine-induced climbing, antipsychotic activity); conditions: Mus musculus, apomorphine 1.5 mg/kg s.c.
Experimental: Antipsychotic activity is determined in the climbing mice assay by methods similar to those described by P. Protais, et al., Psychopharmacol., 50, 1 (1976) and B. Costall, Eur. J. Pharmacol., 50, 39, (1978).
The subject CK-1 male mice (23-27 grams) are group-housed under standard laboratory conditions. The mice are individually placed in wire mesh stick cages (4"×4" by 10") and are allowed one hour for adaptation and exploration of the new environment. Then apomorphine is injected subcutaneously at 1.5 mg/kg, a dose causing climbing in all subjects for 30 minutes. Compounds to be tested for antipsychotic activity are injected intraperitoneally 30 minutes prior to the apomorphine challenge at a screening dose of 10 mg/kg.
For evaluation of climbing, 3 readings are taken at 10, 20 and 30 minutes after apomorphine administration according to the following scale:
4 paws on bottom (no climbing)
2 paws on the wall (rearing)
4 paws on the wall (full climb)
Mice consistently climbing before the injection of apomorphine are discarded.
With full-developed apomorphine climbing, the animals are hanging onto the cage walls, rather motionless, over long periods of time. By constrast, climbs due to mere motor stimulation usually last only a few seconds.
The climbing scores are individually totaled (maximum score: 6 per mouse over 3 readings) and the total score of the control group (vehicle intraperitoneally; apomorphine subcutaneously) is set to 100%. ED50 values with 95% confidence limits, calculated by a linear regression analysis, of some of the compounds of this invention are presented in Table 2.
Results of the climbing mice assay for some of the compounds of this invention along with a result for a reference compounds are presented in Table 2.

[3] = test system: male mice; experiment: supramaximal electroshock (SES) assay in the mouse (anticonvulsant activity)
Experimental: Compounds I of the present invention are also useful as anticonvulsant agents due to their anticonvulsant activity in mammals. Anticonvulsant activity is measured in the mouse using the supramaximal electroshock (SES) assay described in Arch. Int. Pharmacodyn. 92: 97-107, 1952. In this procedure groups of male mice, 18-30 grams, are used. Drugs are prepared using distilled water and, if insoluble, a surfactant is added. Control animals receive vehicle. Drugs are routinely administered intraperitoneally (i.p.). The dosage volume is 10 ml/kg. A primary screen is given a 30 minute pretreat. The animal's eyes are placed across the output terminals of an A.C. shocker that delivers 206 volts rms for 300 msec. Electrode paste coats the animal's eyes at the point of contact with the terminals. […] Protection is expressed as normalized percent inhibition relative to vehicle control.
A time response is carried out using six animals/group. Animals are tested at 30, 60 and 120 minutes postdrug. Additional time periods are tested if indicated by previous tests. When the peak activity time has been determined, a dose response is initiated using 10 animals/group at that time period. The ED50 and 95% confidence interval are calculated by computer probit analysis.
Test results of supramaximal electroshock for a compound of this invention along with a result for a reference compound are presented in Table 3.

[4] = ip, 30 minutes prior to apomorphine challenge

For CN1CCC2(CC1)c1c([nH]c3ccccc13)-c1ccccc1N2C [1',5-Dimethyl-5,6-dihydrospiro[1H-indolo[3,2-c]quinoline-6,4'-piperidine]fumarate, hemiethanolate], the ED50 ([1]; Mus musculus, sc) was 10.3 mg/kg and the ED50 [2, 4] was 19.8 mg/kg.
For CCN1CCC2(CC1)NC1=CC=CCC1=C1N=c3ccccc3=C12 [1'-Ethyl-5,6-dihydrospiro[1H-indolo[3,2-c]quinoline-6,4'-piperidine]], the “supramaximal electroshock, normalized percent inhibition relative to vehicle control” value ([3]; at 60 mg/kg, i.p.) was -80%.
Work on CC(C)=CCN1CCC2(C)c3cc(O)ccc3CC1C2C (stereo not drawn) [Pentazocine, reference compound] yielded a PQW ([1]; at 1.3 mg/kg, reference compound) of -50%.
Compound CNC1=Nc2ccc(Cl)cc2C(c2ccccc2)=[N+]([O-])C1 [Chlorodiazepoxide, reference compound] has an ED50 ([3]; ip, reference compound) of 8 mg/kg.
Compound c1ccc(CCN2CCC3(CC2)Nc2ccccc2-c2[nH]c4ccccc4c23)cc1 [1'-Phenethyl-5,6-dihydrospiro[1H-indolo[3,2-c]quinoline-6,4'-piperidine]fumarate] has a PQW ([1]; at 5 mg/kg) of -55%.
CN1CCN(C2=Nc3cc(Cl)ccc3Nc3ccccc32)CC1 [Clozapine, reference compound] gave an ED50 ([2]; sc, reference compounds) of 8.1 mg/kg.
CN1CCC2(CC1)c1c([nH]c3ccccc13)-c1ccc(Cl)cc1N2C [3-Chloro-5,1'-dimethyl-5,6-dihydrospiro[1H-indolo-[3,2-c]quinoline-6,4'-piperidine]dihydrochloride] was tested, and the ED50 [2, 4] was 13.2 mg/kg.
For CC(=O)N1CCC2(CC1)NC1=CC=CCC1=C1N=c3ccccc3=C12 [1'-Acetyl-5,6-dihydrospiro[1H-indolo[3,2-c]quinoline-6,4'-piperidine]], the PQW ([1]; at 20 mg/kg) was -66%.
